Consider 22 compounds from patent US20240150293A1, “SPIROCYCLOHEXANE DERIVATIVES, PHARMACEUTICAL COMPOSITIONS CONTAINING THEM AND THEIR USES AS ANTI-APOPTOTIC INHIBITORS” (LES LABORATOIRES SERVIER, priority 2021, published 2024).

Where two headings read alike, the source gives them in different places.

For test [1], the target named is Cy5-labelled Mcl1 (amino acids 171-321) C286S protein (UniProtKB Q07820) (Homo sapiens (Human), UniProt Q07820, C286S). In words: Inhibition of Mcl-1 by the fluorescence quenching assay (Example A, Method B). Format: binding. In a few lines:
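Eleven-point compound series incubated 2 h at room temperature with 1 nM Cy5-tagged protein and quencher-labelled PUMA peptide at 10, 20 or 400 nM in HEPES/NaCl/Tween 20, pH 7.4, 5% DMSO. IC50 for 50% fluorescence increase by 4-parameter fit, then Ki derived (complete cKi or estimated eKi).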

The next test concerns NCI-H929 cell lines. In words: In vitro cytotoxicity, CellTiter-Glo (CTG) assay (Example B, Method B). Format: cell-based. Particulars: NCI-H929 cells, 48 h incubation, read-out: C50. Here is the method: Cellular viability was monitored with the cell viability assay (Cell Titer-Glo®) on NCI-H929 cell lines. The CellTiter-Glo® (CTG) Luminescent Cell Viability Assay (from Promega) is a homogeneous method to determine the number of viable cells in culture based on quantitation of the ATP present, which signals the presence of metabolically active cells.
Concentration response of test compounds are performed with 10 mM stock solutions (DMSO), 11-points curve, in a 384-well compound plate. The assay plate is prepared by stamping 120 nL from compound dilution plate of all different concentrations (e.g. 10 mM to have final 30 μM assay test) into a cell culture microplate, using Echo acoustic liquid handling (Labcyte, Beckman). 40 μl of cell solution is added and cells are incubated with compounds for 48 h at 37° C., 5% CO2. CTG was added to the cells (according to the manufacturer instructions) and luminescence intensity was recorded using the Pherastar plate reader (BMG).
This assay provides in vitro cellular efficacy of compounds of Formula (I) tested, measuring the C50, defined as the concentration needed to reach 50% of the cellular viability.

Cy5-labelled Mcl1 (amino acids 171-321) C286S protein, sequence (Q07820 171-321 C286S): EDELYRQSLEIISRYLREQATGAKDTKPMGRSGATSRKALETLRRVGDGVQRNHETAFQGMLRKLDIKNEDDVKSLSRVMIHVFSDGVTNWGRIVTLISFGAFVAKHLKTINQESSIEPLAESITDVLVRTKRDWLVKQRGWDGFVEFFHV

For `CC1Oc2cc3c(cc2O1)[C@]1(CC[C@@](Nc2cccc(Cl)c2)(C(=O)O)CC1)[C@@H](C[C@@H](C)COc1ccnc2c1[C@H](C)CCC2)C3` (single isomer, unassigned) [Example 965], the Ki (in general, the dissociation constant of the complex between target and ligand, obtained from inhibition or displacement) in test [1] worked out at 0.0173 nM. Besides, in the test with NCI-H929 cell lines (Homo sapiens, NCI-H929, 48 h), the IC50 was 68.8 nM.
On to `CC1Oc2cc3c(cc2O1)[C@]1(CC[C@@](Nc2cccc(Cl)c2)(C(=O)O)CC1)[C@@H](C[C@@H](C)COc1ccnc2c1[C@H](C)CCC2)C3` (single isomer, unassigned) [Example 966], for which the Ki in test [1] worked out at 0.0267 nM. Further, the IC50 in the test on NCI-H929 cell lines is 48.3 nM.
Regarding `CCC1Oc2cc3c(cc2O1)[C@]1(CC[C@@](Nc2cccc(Cl)c2)(C(=O)O)CC1)[C@@H](C[C@@H](C)COc1ccnc2c1[C@H](C)CCC2)C3` (single isomer, unassigned) [Example 967], the Ki in test [1] amounted to 0.0263 nM. Further, the IC50 in the test with NCI-H929 cell lines (Homo sapiens, NCI-H929, 48 h) is 137 nM.
Take `CCC1Oc2cc3c(cc2O1)[C@]1(CC[C@@](Nc2cccc(Cl)c2)(C(=O)O)CC1)[C@@H](C[C@@H](C)COc1ccnc2c1[C@H](C)CCC2)C3` (single isomer, unassigned) [Example 968]: in test [1], the Ki turned out to be 0.0405 nM. Further, the IC50 in the test with NCI-H929 cell lines amounted to 72.7 nM.
Regarding `CC1COc2cc3c(cc2OC1)[C@]1(CC[C@@](Nc2cccc(Cl)c2)(C(=O)O)CC1)[C@@H](C[C@@H](C)COc1ccnc2c1[C@H](C)CCC2)C3` (single isomer, unassigned) [Example 982], the Ki in test [1] amounted to 0.0264 nM. Also, the IC50 in the test with NCI-H929 cell lines turned out to be 157 nM.
For the compound `CC1COc2cc3c(cc2OC1)[C@]1(CC[C@@](Nc2cccc(Cl)c2)(C(=O)O)CC1)[C@@H](C[C@@H](C)COc1ccnc2c1[C@H](C)CCC2)C3` (single isomer, unassigned) [Example 983], the Ki in test [1] amounted to 0.037 nM. Further, in the test on NCI-H929 cell lines, the IC50 amounted to 74.4 nM.
Turning to `CCC1COc2cc3c(cc2OC1)[C@]1(CC[C@@](Nc2cccc(Cl)c2)(C(=O)O)CC1)[C@@H](C[C@@H](C)COc1ccnc2c1[C@H](C)CCC2)C3` (single isomer, unassigned) [Example 988], in test [1], the Ki was determined as 0.0323 nM. Besides, in the test with NCI-H929 cell lines, the IC50 came to 204 nM.
The matching figures for `CCC1COc2cc3c(cc2OC1)[C@]1(CC[C@@](Nc2cccc(Cl)c2)(C(=O)O)CC1)[C@@H](C[C@@H](C)COc1ccnc2c1[C@H](C)CCC2)C3` (single isomer, unassigned) [Example 989]: 0.0288 nM and 88.5 nM.
The matching figures for `CCCC1COc2cc3c(cc2OC1)[C@]1(CC[C@@](Nc2cccc(Cl)c2)(C(=O)O)CC1)[C@@H](C[C@@H](C)COc1ccnc2c1[C@H](C)CCC2)C3` (single isomer, unassigned) [Example 990]: 0.0575 nM and 353 nM.
The matching figures for `CCCC1COc2cc3c(cc2OC1)[C@]1(CC[C@@](Nc2cccc(Cl)c2)(C(=O)O)CC1)[C@@H](C[C@@H](C)COc1ccnc2c1[C@H](C)CCC2)C3` (single isomer, unassigned) [Example 991]: 0.0764 nM and 162 nM.
As for `CC(C)C1COc2cc3c(cc2OC1)[C@]1(CC[C@@](Nc2cccc(Cl)c2)(C(=O)O)CC1)[C@@H](C[C@@H](C)COc1ccnc2c1[C@H](C)CCC2)C3` (single isomer, unassigned) [Example 992], in test [1], the Ki came to 0.0795 nM. In the test with NCI-H929 cell lines (Homo sapiens, NCI-H929, 48 h), the IC50 was 184 nM.
Turning to `CC(C)C1COc2cc3c(cc2OC1)[C@]1(CC[C@@](Nc2cccc(Cl)c2)(C(=O)O)CC1)[C@@H](C[C@@H](C)COc1ccnc2c1[C@H](C)CCC2)C3` (single isomer, unassigned) [Example 993], the Ki in test [1] turned out to be 0.0666 nM. In addition, in the test with NCI-H929 cell lines, the IC50 was 143 nM.
With `C[C@@H](COc1ccnc2c1[C@H](C)CCC2)CN1Cc2ccccc2[C@]12CC[C@@](Nc1cccc(Cl)c1)(C(=O)O)CC2` [Example 40, (1s,4S)-4-(3-chloroanilino)-2′-[(2R)-2-methyl-3-{[(5R)-5-methyl-5,6,7,8-tetrahydroquinolin-4-yl]oxy}propyl]-2′,3′-dihydrospiro[cyclohexane-1,1′-isoindole]-4-carboxylic acid], the Ki in test [1] (Ki determined from IC50) came to 0.981 nM. Moreover, in the test with NCI-H929 cell lines (Homo sapiens, NCI-H929, 48 h), the IC50 amounted to 280 nM.
Regarding `COc1cc2c(cc1F)CN(C[C@@H](C)COc1ccnc3c1[C@H](C)CCC3)[C@]21CC[C@](Nc2cccc(Cl)c2)(C(=O)O)CC1` [Example 43, (1s,4S)-4-(3-chloroanilino)-5′-fluoro-6′-methoxy-2′-[(2R)-2-methyl-3-{[(5R)-5-methyl-5,6,7,8-tetrahydroquinolin-4-yl]oxy}propyl]-2′,3′-dihydrospiro[cyclohexane-1,1′-isoindole]-4-carboxylic acid], the Ki in test [1] (Ki determined from IC50) was found to be 0.25 nM. Moreover, in the test on NCI-H929 cell lines (Homo sapiens, NCI-H929, 48 h), the IC50 came to 162 nM.
Regarding `C[C@@H](COc1ccnc2c1[C@H](C)CCC2)CN1Cc2cc3c(cc2[C@]12CC[C@](Nc1cccc(Cl)c1)(C(=O)O)CC2)OCO3` [Example 45, (1r,4R)-4-(3-chloroanilino)-6′-[(2R)-2-methyl-3-{[(5R)-5-methyl-5,6,7,8-tetrahydroquinolin-4-yl]oxy}propyl]-6′,7′-dihydro-2′H-spiro[cyclohexane-1,5′-[1,3]dioxolo[4,5-f]isoindole]-4-carboxylic acid], the Ki in test [1] (Ki determined from IC50) came to 300 nM. The IC50 in the test with NCI-H929 cell lines (Homo sapiens, NCI-H929, 48 h) is 24200 nM.
As to `COc1cc2c(cc1Cl)CN(C[C@@H](C)COc1ccnc3c1[C@H](C)CCC3)[C@]21CC[C@](Nc2cccc(Cl)c2)(C(=O)O)CC1` [Example 46, (1s,4S)-5′-chloro-4-(3-chloroanilino)-6′-methoxy-2′-[(2R)-2-methyl-3-{[(5R)-5-methyl-5,6,7,8-tetrahydroquinolin-4-yl]oxy}propyl]-2′,3′-dihydrospiro[cyclohexane-1,1′-isoindole]-4-carboxylic acid], the inhibitory constant (Ki) in test [1] (Ki determined from IC50) came out at 0.255 nM. The IC50 in the test with NCI-H929 cell lines (Homo sapiens, NCI-H929, 48 h) was determined as 262 nM.
The matching figures for `C[C@@H](COc1ccnc2c1[C@H](C)CCC2)CN1Cc2cc3c(cc2[C@]12CC[C@@](Nc1ccc(F)c(Cl)c1)(C(=O)O)CC2)OCO3` [Example 47, (1s,4S)-4-(3-chloro-4-fluoroanilino)-6′-[(2R)-2-methyl-3-{[(5R)-5-methyl-5,6,7,8-tetrahydroquinolin-4-yl]oxy}propyl]-6′,7′-dihydro-2′H-spiro[cyclohexane-1,5′-[1,3]dioxolo[4,5-f]isoindole]-4-carboxylic acid]: 0.0933 nM and 37.4 nM.
Turning to `C[C@@H](COc1ccnc2c1[C@H](C)CCC2)CN1Cc2cc3c(cc2[C@]12CC[C@](Nc1ccc(F)c(Cl)c1)(C(=O)O)CC2)OCO3` [Example 48, (1r,4R)-4-(3-chloro-4-fluoroanilino)-6′-[(2R)-2-methyl-3-{[(5R)-5-methyl-5,6,7,8-tetrahydroquinolin-4-yl]oxy}propyl]-6′,7′-dihydro-2′H-spiro[cyclohexane-1,5′-[1,3]dioxolo[4,5-f]isoindole]-4-carboxylic acid], the Ki in test [1] (Ki determined from IC50) came out at 104 nM. In addition, in the test with NCI-H929 cell lines (Homo sapiens, NCI-H929, 48 h), the IC50 came to 21500 nM.
The matching figures for `Cc1c(Cl)cccc1N[C@]1(C(=O)O)CC[C@]2(CC1)c1cc3c(cc1CN2C[C@@H](C)COc1ccnc2c1[C@H](C)CCC2)OCO3` [Example 49, (1s,4S)-4-(3-chloro-2-methylanilino)-6′-[(2R)-2-methyl-3-{[(5R)-5-methyl-5,6,7,8-tetrahydroquinolin-4-yl]oxy}propyl]-6′,7′-dihydro-2′H-spiro[cyclohexane-1,5′-[1,3]dioxolo[4,5-f]isoindole]-4-carboxylic acid]: 0.31 nM and 242 nM.
The matching figures for `Cc1c(Cl)cccc1N[C@]1(C(=O)O)CC[C@@]2(CC1)c1cc3c(cc1CN2C[C@@H](C)COc1ccnc2c1[C@H](C)CCC2)OCO3` [Example 50, (1r,4R)-4-(3-chloro-2-methylanilino)-6′-[(2R)-2-methyl-3-{[(5R)-5-methyl-5,6,7,8-tetrahydroquinolin-4-yl]oxy}propyl]-6′,7′-dihydro-2′H-spiro[cyclohexane-1,5′-[1,3]dioxolo[4,5-f]isoindole]-4-carboxylic acid]: 72 nM and 13500 nM.
The matching figures for `COCc1cc2c(cc1F)CN(C[C@@H](C)COc1ccnc3c1[C@H](C)CCC3)[C@]21CC[C@](Nc2cccc(Cl)c2)(C(=O)O)CC1` [Example 51, (1s,4S)-4-(3-chloroanilino)-5′-fluoro-6′-(methoxymethyl)-2′-[(2R)-2-methyl-3-{[(5R)-5-methyl-5,6,7,8-tetrahydroquinolin-4-yl]oxy}propyl]-2′,3′-dihydrospiro[cyclohexane-1,1′-isoindole]-4-carboxylic acid]: 0.0762 nM and 37.7 nM.
For `Cc1c(Cl)cccc1N[C@]1(C(=O)O)CC[C@]2(CC1)c1ccc(F)cc1CN2C[C@@H](C)COc1ccnc2c1[C@H](C)CCC2` [Example 52, (1s,4S)-4-(3-chloro-2-methylanilino)-5′-fluoro-2′-[(2R)-2-methyl-3-{[(5R)-5-methyl-5,6,7,8-tetrahydroquinolin-4-yl]oxy}propyl]-2′,3′-dihydrospiro[cyclohexane-1,1′-isoindole]-4-carboxylic acid], in test [1] (Ki determined from IC50), the Ki is 0.583 nM. For the same compound, the IC50 with NCI-H929 cell lines (Homo sapiens, NCI-H929, 48 h) came to 454 nM.
